Data set [1] relates to rat uterus (uterine cornuae). Description: Uterine relaxant activity, inhibition of spontaneous contractions of the isolated uterus (De Jalon method). Further details: species or system rat (Sprague Dawley). Conditions: 0.5 γ/ml of bath; for uterine relaxant effect: in words. As for the experimental part:
The study was conducted on rat uterus, using the following compounds:
The conventional method of De Jalon, Bayo and De Jalon (1945). Farmacoter. act. 3, 313 -- also reported in the book : "Pharmacological Experiments on Isolated Preparations" by the staff of the Department of Pharmacology, University of Edinburgh, published by E. & S. Livingstone Ltd, London -- was used, the pharmacological investigation being conducted on the uterine cornuae of female rats (Sprague Dawley strain) kept alive in a survival liquid.
A tank containing Tyrode's solution is maintained at a constant temperature of 32°C. The test organ is suspended to a strain gauge for the purpose of recording the contractions on a potentiometric recorder. The uterine cornuae are taken from non-gravid puberal female rats having an average weight of 160 g.
The day prior to the test, the animals are administered a di-ethyl-stilboestrol injection. Postmortem, the cornuae are isolated as rapidly as possible and a 15 mm fragment from which the connective tissue has been removed is placed in the experimental cell.
During oestrum, regular spontaneous contractions (FIG. 1) are noted; such oscillations are stable within 30-60 minutes, after washing several times with suitably oxygenated Tyrode's solution.
Addition to the bath of uterine relaxant material produces, at a low dosage, a total inhibition of such spontaneous contractions.

In a further data set the test system is duodenum of rats. Description: Beta-stimulant action, inhibition of acetylcholine-induced contraction of isolated duodenum. Further details: species or system rat (Sprague Dawley). Conditions: 0.1 γ/ml of bath; for % Inhibition of cholinergic contraction (beta-stimulant action): acetylcholine 0.1 γ/ml; for beta-stimulant action: in words. As for the experimental part: A comparison was made of the beta-stimulant action of the same compounds as used in the above experiment.
The duodenum of rats (Sprague Dawley strain) weighing about 150 g is taken immediately post-mortem. The test organ is immediately placed in a suitable cell for the isolated organ (oxygenated Tyrode's solution maintained at a temperature of 37°C).
Addition of acetylcholine (0.1 γ/ml) to the bath induces a contraction of the organ which is immediately transmitted via a strain gauge to a potentiometric recording device.
Addition of a beta-stimulant material causes inhibition of this […].
A comparison was made between the actions of various materials on cholinergic contractions.

In data set [2] the test system is isolated heart (coronary rate of flow). The data set is described as follows: Coronary dilator activity, Langendorff's method on the isolated heart. Further details: species or system rabbit (Fauve de Bourgogne); ED 50: unit not given beside the values. Conditions: for activation at 0.005 mg: 5 γ injected; for activation at 0.01 mg: 10 γ injected; for activation at 0.02 mg: 20 γ injected; for activation at 0.04 mg: 40 γ injected; for activation at 0.08 mg: 80 γ injected; for ED 50: 50% increase of original coronary rate of flow; for activation at 0.16 mg: 160 γ injected; for activation at 0.025 mg: 25 γ injected; for activation at 0.05 mg: 50 γ injected. As for the experimental part:
The coronary dilator activity was studied according to Langendorff's method on the isolated heart.
The tests were carried out on the hearts of young Fauve de Bourgogne (about 1.5 kg) rabbits. The hearts were rapidly taken out and maintained in surviving condition by perfusion of a physiological (Tyrode type) liquid heated at 37°C and oxygenated under a constant pressure of 50-60 cm of water. The heart was perfused countercurrently.
Volumetric determinations of the coronary rate of flow were then recorded at thirty second intervals.
After stabilization of the basic rate of flow, the test compound, dissolved in physiological saline solution, was injected in the perfusion liquid, in a volume of from 0.05 to 0.2 ml.
In the same heart, increasing dosages of all three compounds were tested by injecting alternatively a predetermined dose for each one of the three compounds.
Each injection was made 4-5 minutes after a stable rate of flow was attained.
The tests were carried out as above with three rabbits.

The test system of the next data set is patients. The data set is described as follows: Clinical experiments in patients with anginose states or ischemic diseases of the heart. It is filed as in vivo, human. As for the experimental part: The compound prepared in example 4 (1-(1-hydroxypropyl)-4-[2-(1-methyl-phenethylamino)-ethoxy]-benzene hydrochloride) was experimented in four different Cardiology Services. 211 patients were treated with this compound. These patients suffered from different anginose states or from ichemic diseases of the heart (coronary failures or after-effects of infarct). […] Therefore the tolerance is excellent.

Another data set concerns beta receptor. The following applies: International Conference on Duvadilan, May 1962; cited from earlier work.
For data set [3] the following is noted: cited from earlier work.
In a further data set the test system is uterus. Conditions: in words; cited from earlier work.
The conditions of data set [4]: compared to Isoxsuprine; cited from earlier work.
Where [5] appears, read: Oryctolagus cuniculus, Table I, heart A, read-out: increase of coronary rate of flow.
[6] abbreviates: Oryctolagus cuniculus, Table I, heart B, read-out: increase of coronary rate of flow.
[7] abbreviates: Oryctolagus cuniculus, Table II, heart No. 1, read-out: increase of coronary rate of flow.
The mark [8] stands for this setting: Oryctolagus cuniculus, Table II, heart No. 2, read-out: increase of coronary rate of flow.
Where [9] appears, read: Oryctolagus cuniculus, Table II, heart No. 3, read-out: increase of coronary rate of flow.

Read-outs that look alike come from different tables or passages of the source.

For `CC(COc1ccccc1)NC(C)C(O)c1ccccc1` (centres unmarked) [Compound D, reference compound], in data set [1], the “% Inhibition of spontaneous uterine contractions” value was 70% and the uterine relaxant effect result is on record as “reduced uterine relaxant effect”. In addition, in the data set on duodenum of rats, the “% Inhibition of cholinergic contraction (beta-stimulant action)” value (from here on “% Inhibition of cholinergic contraction”) was 100% and the beta-stimulant action entry is given as “highly beta-stimulant action”.
Regarding `CCC(=O)c1ccc(OCCNC(C)Cc2ccccc2)cc1` (centres unmarked) [Example 1, 4-[2-(1-methyl-phenethylamino)-ethoxy]-propiophenone], in data set [1], the “% Inhibition of spontaneous uterine contractions” value was determined as 0% and the uterine relaxant effect entry was “absolutely no uterine relaxant effect”. For the same compound, in data set [2] (setting [5]), the activation at 0.005 mg is 12%, the activation at 0.01 mg was found to be 34%, the activation at 0.02 mg is 47% and the activation at 0.04 mg was found to be 50%. The activation at 0.08 mg in data set [2] (setting [5]) was 80.5%. In addition, in data set [2] (setting [6]), the activation at 0.01 mg came to 8%, the activation at 0.02 mg is 37%, the activation at 0.04 mg was 50% and the activation at 0.08 mg amounted to 62%. Moreover, the “ED 50” value in data set [2] (Table I, heart A) is 27 γ. The “ED 50” value in data set [2] (Table I, heart B) is given as 44 γ. In addition, in the data set with duodenum of rats, the “% Inhibition of cholinergic contraction” value is given as 15% and the beta-stimulant action entry is reported as “only a slight beta-stimulant effect”.
Regarding `CCC(O)c1ccc(OCCNC(C)Cc2ccccc2)cc1` (centres unmarked) [Example 4, 1-(1-hydroxy-propyl)-4[2-(1-methyl-phenethylamino)-ethoxy]-benzene], in data set [1], the “% Inhibition of spontaneous uterine contractions” value is on record as 0% and the uterine relaxant effect entry is listed as “absolutely no uterine relaxant effect”. Also, the activation at 0.002 mg in data set [2] (Oryctolagus cuniculus, Table I, heart A, 2 γ injected, read-out: increase of coronary rate of flow) was 10%. In addition, in data set [2] (setting [5]), the activation at 0.005 mg stood at 30%, the activation at 0.01 mg turned out to be 33%, the activation at 0.02 mg stood at 67% and the activation at 0.04 mg worked out at 93%. Moreover, in data set [2] (setting [6]), the activation at 0.01 mg amounted to 11%, the activation at 0.02 mg is 30%, the activation at 0.04 mg amounted to 55% and the activation at 0.08 mg was 78%. Further, in data set [2] (setting [7]), the activation at 0.04 mg amounted to 33%, the activation at 0.08 mg amounted to 54% and the activation at 0.16 mg amounted to 78%. Moreover, in data set [2] (setting [8]), the activation at 0.01 mg was 33%, the activation at 0.02 mg was 50% and the activation at 0.04 mg is 80%. Further, in data set [2] (setting [9]), the activation at 0.02 mg turned out to be 17%, the activation at 0.04 mg stood at 46%, the activation at 0.08 mg was found to be 50% and the activation at 0.16 mg came to 75%. Further, in data set [2] (Table I, heart A), the “ED 50” value was 11 γ. Further, the “ED 50” value in data set [2] (Table I, heart B) is on record as 35 γ. Moreover, in the data set with duodenum of rats, the “% Inhibition of cholinergic contraction” value was 15% and the beta-stimulant action result was “only a slight beta-stimulant effect”. Besides, in the data set on patients (211 patients), the contra-indication result was “no contra-indication”; the “modification of cardiac frequency and arterial pressure” value was “no modification of the cardiac frequency and of the arterial pressure”; the tolerance entry is given as “excellent”. In the data set with patients (211 patients treated), the “favourable results (number of patients)” value came to 172 patients and the “favourable results (share of patients)” value is reported as 81.5%.
With `CCCC(=O)c1ccc(OCCNC(C)Cc2ccccc2)cc1` (centres unmarked) [Example 5, 4-[2-(1-methyl-phenethylamino)-ethoxy]-butyrophenone], the activation at 0.01 mg in data set [2] (setting [5]) stood at 21%; in data set [2] (setting [6]), 16%. In addition, the activation at 0.025 mg in data set [2] (setting [5]) was determined as 57%; in data set [2] (setting [6]), 39%. Further, the figures for the activation at 0.05 mg in data set [2] (setting [5]) and in data set [2] (setting [6]) were 64% and 50%, respectively. The “ED 50” value in data set [2] (Table I, heart A) was 24 γ; in data set [2] (Table I, heart B), 45 γ.
Turning to `CC(COc1ccccc1)NC(C)C(O)c1ccc(O)cc1` (centres unmarked) [Isoxsuprine, 1-(p-hydroxyphenyl)-2-(1-methyl-2 phenoxyethylamino) propanol-1, reference compound], in data set [1], the “% Inhibition of spontaneous uterine contractions” value worked out at 100% and the uterine relaxant effect entry was “total uterine relaxant action”. The “mechanism of uterine relaxant activity” value in the data set on beta receptor is “essentially due to beta receptor activation”. In data set [2] (setting [7]), the activation at 0.04 mg was found to be 8%, the activation at 0.08 mg stood at 20% and the activation at 0.16 mg is 50%. Further, in data set [2] (setting [8]), the activation at 0.02 mg amounted to 17%, the activation at 0.04 mg is 43% and the activation at 0.08 mg stood at 60%. For the same compound, in data set [2] (setting [9]), the activation at 0.04 mg was determined as 0%, the activation at 0.08 mg came out at 17% and the activation at 0.16 mg stood at 33%. Also, the activation at 0.32 mg in data set [2] (Oryctolagus cuniculus, Table II, heart No. 3, 320 γ injected, read-out: increase of coronary rate of flow) is 50%. In addition, in data set [2] (Oryctolagus cuniculus, Table II, heart No. 3, 640 γ injected, read-out: increase of coronary rate of flow), the activation at 0.64 mg is 75%. Moreover, the ventricular stimulability result in data set [3] (in view of beta-stimulant properties) is on record as “increases ventricular stimulability”. Moreover, in data set [3] (particularly ventricular extrasystoles), the “possible occurrence of extrasystoles” value was “increases also the possible occurrence of extrasystoles”. Further, in the data set on duodenum of rats, the “% Inhibition of cholinergic contraction” value was determined as 100% and the beta-stimulant action entry is “highly beta-stimulant action”.
Regarding `CC(COc1ccccc1)NC(C)Cc1ccccc1` (centres unmarked) [N-(2-phenyl-1-methyl-ethyl)-2-phenoxy-1-methyl-ethylamine], the uterus relaxant activity entry in the data set with uterus is recorded as “uterus relaxants”. In addition, the vasodilator activity result in data set [4] was “reduced vasodilator activity compared to Isoxsuprine”.

Values taken from patent publication US3959359A, “Phenoxyalkylamines, process for their preparation and therapeutical composition containing same” (priority 1968, dated 1976).
